For one test, the target named is T1, Estrogen receptor (Homo sapiens, UniProt P03372).
T1 sequence (P03372 whole entry): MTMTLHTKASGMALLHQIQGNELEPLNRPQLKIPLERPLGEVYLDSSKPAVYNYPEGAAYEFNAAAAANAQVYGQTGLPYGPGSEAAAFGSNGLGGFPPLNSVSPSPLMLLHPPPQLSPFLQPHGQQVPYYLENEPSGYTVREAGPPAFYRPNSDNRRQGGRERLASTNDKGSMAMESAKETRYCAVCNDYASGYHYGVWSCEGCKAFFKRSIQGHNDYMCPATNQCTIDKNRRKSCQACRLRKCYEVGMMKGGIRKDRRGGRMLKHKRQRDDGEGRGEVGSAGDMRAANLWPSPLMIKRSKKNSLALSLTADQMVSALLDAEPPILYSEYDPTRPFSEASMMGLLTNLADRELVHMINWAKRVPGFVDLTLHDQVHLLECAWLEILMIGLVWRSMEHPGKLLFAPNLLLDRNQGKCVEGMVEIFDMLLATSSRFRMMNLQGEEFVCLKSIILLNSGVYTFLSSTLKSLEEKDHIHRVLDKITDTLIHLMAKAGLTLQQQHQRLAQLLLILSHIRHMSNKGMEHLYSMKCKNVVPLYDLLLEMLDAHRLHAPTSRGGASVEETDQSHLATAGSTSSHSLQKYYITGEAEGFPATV

The target of test [1] is T2, Alpha-1A adrenergic receptor (Homo sapiens, UniProt P35348).
T2 sequence (P35348 whole entry): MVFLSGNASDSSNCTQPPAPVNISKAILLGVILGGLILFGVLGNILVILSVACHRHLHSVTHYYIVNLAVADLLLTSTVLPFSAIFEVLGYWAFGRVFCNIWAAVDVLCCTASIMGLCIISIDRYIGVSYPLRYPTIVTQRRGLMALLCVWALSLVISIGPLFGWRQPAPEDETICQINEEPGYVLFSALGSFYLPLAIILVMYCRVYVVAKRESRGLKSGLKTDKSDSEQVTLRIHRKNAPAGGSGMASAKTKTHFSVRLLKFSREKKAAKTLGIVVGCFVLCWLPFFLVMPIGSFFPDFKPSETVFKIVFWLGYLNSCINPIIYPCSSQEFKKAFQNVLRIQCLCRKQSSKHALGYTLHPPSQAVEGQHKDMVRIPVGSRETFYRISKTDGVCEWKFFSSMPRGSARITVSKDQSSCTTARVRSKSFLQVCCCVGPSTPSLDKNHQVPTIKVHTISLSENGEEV
In kind it is functional, cell-based.

The target in another test is T3, Progesterone receptor (Homo sapiens, UniProt P06401).
T3 sequence (P06401 whole entry): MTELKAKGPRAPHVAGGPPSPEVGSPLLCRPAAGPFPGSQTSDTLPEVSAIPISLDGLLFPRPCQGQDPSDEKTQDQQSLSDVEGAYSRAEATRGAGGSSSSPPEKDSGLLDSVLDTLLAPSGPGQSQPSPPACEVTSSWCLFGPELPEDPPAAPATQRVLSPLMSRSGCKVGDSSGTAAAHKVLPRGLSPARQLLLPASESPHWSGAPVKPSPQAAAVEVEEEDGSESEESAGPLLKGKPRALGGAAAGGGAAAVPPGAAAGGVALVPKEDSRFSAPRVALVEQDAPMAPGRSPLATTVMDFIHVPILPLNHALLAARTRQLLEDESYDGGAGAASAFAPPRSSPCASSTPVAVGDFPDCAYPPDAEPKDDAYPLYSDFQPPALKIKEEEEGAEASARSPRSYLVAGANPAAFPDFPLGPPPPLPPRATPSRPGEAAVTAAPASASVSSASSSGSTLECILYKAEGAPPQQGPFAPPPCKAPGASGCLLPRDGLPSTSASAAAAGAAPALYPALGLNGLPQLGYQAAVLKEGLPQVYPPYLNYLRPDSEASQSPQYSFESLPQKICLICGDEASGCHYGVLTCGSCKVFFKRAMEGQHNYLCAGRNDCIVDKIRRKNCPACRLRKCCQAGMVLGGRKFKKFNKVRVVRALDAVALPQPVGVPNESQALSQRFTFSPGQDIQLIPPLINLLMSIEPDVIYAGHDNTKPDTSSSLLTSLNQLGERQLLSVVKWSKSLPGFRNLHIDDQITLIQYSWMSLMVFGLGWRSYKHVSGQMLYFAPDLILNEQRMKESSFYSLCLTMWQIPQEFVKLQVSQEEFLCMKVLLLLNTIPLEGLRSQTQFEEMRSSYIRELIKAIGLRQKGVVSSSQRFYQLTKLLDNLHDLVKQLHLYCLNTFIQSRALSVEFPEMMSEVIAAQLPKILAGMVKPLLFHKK

Test [2] deals with T4, Muscarinic acetylcholine receptor M2 (Homo sapiens, UniProt P08172).
T4 sequence (P08172 whole entry): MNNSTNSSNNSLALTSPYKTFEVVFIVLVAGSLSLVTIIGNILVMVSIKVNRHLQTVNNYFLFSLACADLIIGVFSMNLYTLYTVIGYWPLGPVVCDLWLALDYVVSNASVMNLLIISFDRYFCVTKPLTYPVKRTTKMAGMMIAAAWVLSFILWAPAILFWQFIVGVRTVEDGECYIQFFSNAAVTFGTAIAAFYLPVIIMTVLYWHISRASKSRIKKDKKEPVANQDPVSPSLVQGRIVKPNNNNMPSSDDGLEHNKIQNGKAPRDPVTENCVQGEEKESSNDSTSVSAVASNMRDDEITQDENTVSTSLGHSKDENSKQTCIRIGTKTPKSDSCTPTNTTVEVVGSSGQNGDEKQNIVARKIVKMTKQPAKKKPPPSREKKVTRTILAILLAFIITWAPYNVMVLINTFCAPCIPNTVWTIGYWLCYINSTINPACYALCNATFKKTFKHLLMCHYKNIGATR

In test [3] the target is cGMP-inhibited 3',5'-cyclic phosphodiesterase 3A (Homo sapiens, UniProt Q14432). In kind it is functional.
Test [4] deals with Prostaglandin G/H synthase 1 (Homo sapiens, UniProt P23219). Type of test: functional.
Also: assay procedure not described here.

cGMP-inhibited 3',5'-cyclic phosphodiesterase 3A, sequence (Q14432 whole entry): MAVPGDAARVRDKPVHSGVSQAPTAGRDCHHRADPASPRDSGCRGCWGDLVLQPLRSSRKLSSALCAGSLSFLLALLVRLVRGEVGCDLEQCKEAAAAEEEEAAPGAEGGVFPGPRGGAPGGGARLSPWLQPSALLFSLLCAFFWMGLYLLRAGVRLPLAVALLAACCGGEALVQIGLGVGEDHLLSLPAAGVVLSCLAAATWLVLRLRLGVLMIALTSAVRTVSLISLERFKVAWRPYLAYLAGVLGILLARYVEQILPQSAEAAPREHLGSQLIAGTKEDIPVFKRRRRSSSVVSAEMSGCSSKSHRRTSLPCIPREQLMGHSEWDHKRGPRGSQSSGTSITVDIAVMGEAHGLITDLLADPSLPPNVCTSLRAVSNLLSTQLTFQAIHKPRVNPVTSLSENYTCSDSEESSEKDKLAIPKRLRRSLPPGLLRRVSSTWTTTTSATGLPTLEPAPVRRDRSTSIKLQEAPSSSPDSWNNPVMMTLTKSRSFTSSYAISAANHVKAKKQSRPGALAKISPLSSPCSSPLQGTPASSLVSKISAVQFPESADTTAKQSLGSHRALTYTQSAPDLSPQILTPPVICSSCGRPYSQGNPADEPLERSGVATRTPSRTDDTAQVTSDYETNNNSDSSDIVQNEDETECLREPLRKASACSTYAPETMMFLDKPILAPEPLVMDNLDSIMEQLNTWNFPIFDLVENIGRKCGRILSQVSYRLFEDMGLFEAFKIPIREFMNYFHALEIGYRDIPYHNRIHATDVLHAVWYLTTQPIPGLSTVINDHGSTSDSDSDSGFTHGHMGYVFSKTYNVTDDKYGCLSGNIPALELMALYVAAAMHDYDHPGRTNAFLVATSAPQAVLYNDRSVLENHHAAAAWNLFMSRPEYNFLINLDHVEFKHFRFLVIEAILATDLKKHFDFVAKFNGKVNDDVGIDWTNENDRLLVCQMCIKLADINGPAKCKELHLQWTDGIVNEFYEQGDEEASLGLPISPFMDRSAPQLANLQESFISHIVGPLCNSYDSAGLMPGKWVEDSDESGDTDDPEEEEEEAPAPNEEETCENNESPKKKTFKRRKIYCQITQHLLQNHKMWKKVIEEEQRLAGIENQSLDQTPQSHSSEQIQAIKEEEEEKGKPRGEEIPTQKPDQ
Prostaglandin G/H synthase 1, sequence (P23219 whole entry): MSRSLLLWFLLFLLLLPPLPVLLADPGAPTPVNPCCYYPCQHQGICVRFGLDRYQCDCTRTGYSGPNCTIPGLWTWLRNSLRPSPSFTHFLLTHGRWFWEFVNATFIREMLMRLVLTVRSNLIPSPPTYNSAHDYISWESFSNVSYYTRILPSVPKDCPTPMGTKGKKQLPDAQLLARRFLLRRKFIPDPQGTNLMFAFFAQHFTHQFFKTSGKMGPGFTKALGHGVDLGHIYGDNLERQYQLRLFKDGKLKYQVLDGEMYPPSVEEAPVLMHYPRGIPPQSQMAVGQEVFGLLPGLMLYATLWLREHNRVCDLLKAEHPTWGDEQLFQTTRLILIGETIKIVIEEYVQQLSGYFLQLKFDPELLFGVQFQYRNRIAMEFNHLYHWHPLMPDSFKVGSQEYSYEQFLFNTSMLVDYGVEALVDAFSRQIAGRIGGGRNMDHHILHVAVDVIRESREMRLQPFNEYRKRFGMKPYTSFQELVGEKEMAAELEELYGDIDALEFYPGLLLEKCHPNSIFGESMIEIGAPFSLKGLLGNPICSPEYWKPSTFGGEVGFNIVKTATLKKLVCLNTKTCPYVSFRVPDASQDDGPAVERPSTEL

Turning to `COc1ccc(-c2cc(=O)c3c(O)cc(O[C@@H]4O[C@H](CO[C@@H]5O[C@@H](C)[C@H](O)[C@@H](O)[C@H]5O)[C@@H](O)[C@H](O)[C@H]4O)cc3o2)cc1O` [DIOSMIN], the half-maximal activity concentration (AC50) (at Estrogen receptor; in test [1]; at Progesterone receptor; in test [2]; in test [3]; in test [4]) was above 30 µM in each case.

With `O=C(Nc1ccccc1)OCC(CN1CCCCC1)OC(=O)Nc1ccccc1` (centres undefined) [DIPERODON], the AC50 (at Estrogen receptor; in test [1]; on Progesterone receptor; in test [2]; in test [3]; in test [4]) was above 30 µM in each case.

Turning to `CCOc1ccc(/C=C2\NCCc3cc(OCC)c(OCC)cc32)cc1OCC` [DROTAVERINE], the concentration at half-maximal activity (AC50) (commonly the concentration giving half of the maximal activity seen) was above 30 µM on Estrogen receptor; above 30 µM in test [1]; above 30 µM on Progesterone receptor; 28.4 µM in test [2]; above 30 µM in test [3]; 9.33 µM in test [4].

With `CC1=NN(c2ccccc2)C(=O)C1` [EDARAVONE], the AC50 was above 30 µM on Estrogen receptor; above 30 µM in test [1]; above 30 µM on Progesterone receptor; 26.5 µM in test [2]; above 30 µM in test [3]; above 30 µM in test [4].

Turning to `CCOC(=O)C(c1c(O)c2ccccc2oc1=O)c1c(O)c2ccccc2oc1=O` [ETHYL BISCOUMACETATE], the AC50 (on Estrogen receptor; in test [1]; on Progesterone receptor; in test [2]; in test [3]; in test [4]) was above 30 µM in each case.

For `Cc1nc(-c2ccc(OCC(C)C)c(C#N)c2)sc1C(=O)O` [FEBUXOSTAT], the AC50 was above 30 µM on Estrogen receptor; above 30 µM in test [1]; 16.1 µM on Progesterone receptor; above 30 µM in test [2]; above 30 µM in test [3]; above 30 µM in test [4].

Turning to `O=C1NCC2(CCN(CCc3ccccc3)CC2)O1` [FENSPIRIDE], the AC50 at Estrogen receptor is above 30 µM; in test [1], above 30 µM; on Progesterone receptor, above 30 µM; in test [2] it was 16.4 µM; in test [3], above 30 µM; in test [4], above 30 µM.

Take `C[C@@H]1C[C@H]2[C@@H]3C[C@H](F)C4=CC(=O)C=C[C@]4(C)[C@@]3(F)[C@@H](O)C[C@]2(C)[C@@]1(O)C(=O)COC(=O)C(C)(C)C` [FLUMETHASONE PIVALATE]: the concentration at half-maximal activity (AC50) on Estrogen receptor is above 30 µM; in test [1], above 30 µM; on Progesterone receptor it was 5.85 µM; in test [2] it was above 30 µM; in test [3], above 30 µM; in test [4], above 30 µM.

Consider `C[C@@H]1C[C@H]2[C@@H]3C[C@H](F)C4=CC(=O)C(Cl)=C[C@]4(C)[C@@]3(F)[C@@H](O)C[C@]2(C)[C@@]1(O)C(=O)CO` [HALOMETASONE], for which the half-maximal activity concentration (AC50) at Estrogen receptor was above 30 µM; in test [1], above 30 µM; at Progesterone receptor it was 7.72 µM; in test [2], above 30 µM; in test [3], above 30 µM; in test [4], above 30 µM.

On to `CC(C)Cc1ccc(C(C)C(=O)NO)cc1` (centres undefined) [IBUPROXAM], for which the AC50 (on Estrogen receptor; in test [1]; at Progesterone receptor; in test [2]; in test [3]; in test [4]) was above 30 µM each time.

On to `CC/C=C\C/C=C\C/C=C\C/C=C\C/C=C\CCCC(=O)O` [ICOSAPENT], for which the concentration at half-maximal activity (AC50) is above 30 µM on Estrogen receptor; above 30 µM in test [1]; above 30 µM at Progesterone receptor; above 30 µM in test [2]; above 30 µM in test [3]; above 10 µM in test [4].

For the compound `Oc1c(I)cc(I)c2cccnc12` [IODOQUINOL], the half-maximal activity concentration (AC50) is above 30 µM on Estrogen receptor; above 30 µM in test [1]; above 30 µM at Progesterone receptor; above 10 µM in test [2]; 3.36 µM in test [3]; above 30 µM in test [4].

On to `CCC(Cc1c(I)cc(I)c(N)c1I)C(=O)O` (centres undefined) [IOPANOIC ACID], for which the AC50 (at Estrogen receptor; in test [1]; at Progesterone receptor; in test [2]; in test [3]; in test [4]) was above 30 µM in each case.

With `O=C(NC1CCN(CCCCC2(C(=O)NCC(F)(F)F)c3ccccc3-c3ccccc32)CC1)c1ccccc1-c1ccc(C(F)(F)F)cc1` [LOMITAPIDE], the half-maximal activity concentration (AC50) on Estrogen receptor was above 30 µM; in test [1], above 30 µM; on Progesterone receptor it was above 30 µM; in test [2], 22.6 µM; in test [3] it was above 30 µM; in test [4], 23.2 µM.

For `CCN(CC)CCNc1ccc(C)c2sc3ccccc3c(=O)c12` [LUCANTHONE], the half-maximal activity concentration (AC50) at Estrogen receptor was above 30 µM; in test [1], 17.9 µM; at Progesterone receptor, above 30 µM; in test [2], 2.36 µM; in test [3], above 30 µM; in test [4], above 30 µM.

For the compound `CCOC(=O)CC(SP(=S)(OC)OC)C(=O)OCC` (centres undefined) [MALATHION], the concentration at half-maximal activity (AC50) (on Estrogen receptor; in test [1]; at Progesterone receptor; in test [2]; in test [3]; in test [4]) was above 30 µM throughout.

Regarding `CC(=O)OC(C)C[N+](C)(C)C` (centres undefined) [METHACHOLINE], the AC50 was above 30 µM on Estrogen receptor; above 30 µM in test [1]; above 30 µM at Progesterone receptor; 2.22 µM in test [2]; above 30 µM in test [3]; above 30 µM in test [4].

`Cn1cc[nH]c1=S` [METHIMAZOLE]: the AC50 on Estrogen receptor was above 30 µM; in test [1] it was above 30 µM; on Progesterone receptor, above 30 µM; in test [2], above 30 µM; in test [3] it was above 30 µM; in test [4], 0.541 µM.

For the compound `O=[N+]([O-])c1cncn1CCN1CCOCC1` [NIMORAZOLE], the AC50 (at Estrogen receptor; in test [1]; on Progesterone receptor; in test [2]; in test [3]; in test [4]) was above 30 µM in each case.

(Values after ChEMBL document CHEMBL5291721, “A preclinical secondary pharmacology resource illuminates target-adverse drug reaction associations of marketed drugs” (Nat Commun, 2023).)
